How the values were obtained:
[1] = molecular target: T1, COX-2 (Homo sapiens, UniProt P35354); experiment: Cayman COX inhibitor screening assay (prostaglandin ELISA); format: biochemical
T1 construct: gene PTGS2; human recombinant COX-2
T1 sequence (P35354 18-604): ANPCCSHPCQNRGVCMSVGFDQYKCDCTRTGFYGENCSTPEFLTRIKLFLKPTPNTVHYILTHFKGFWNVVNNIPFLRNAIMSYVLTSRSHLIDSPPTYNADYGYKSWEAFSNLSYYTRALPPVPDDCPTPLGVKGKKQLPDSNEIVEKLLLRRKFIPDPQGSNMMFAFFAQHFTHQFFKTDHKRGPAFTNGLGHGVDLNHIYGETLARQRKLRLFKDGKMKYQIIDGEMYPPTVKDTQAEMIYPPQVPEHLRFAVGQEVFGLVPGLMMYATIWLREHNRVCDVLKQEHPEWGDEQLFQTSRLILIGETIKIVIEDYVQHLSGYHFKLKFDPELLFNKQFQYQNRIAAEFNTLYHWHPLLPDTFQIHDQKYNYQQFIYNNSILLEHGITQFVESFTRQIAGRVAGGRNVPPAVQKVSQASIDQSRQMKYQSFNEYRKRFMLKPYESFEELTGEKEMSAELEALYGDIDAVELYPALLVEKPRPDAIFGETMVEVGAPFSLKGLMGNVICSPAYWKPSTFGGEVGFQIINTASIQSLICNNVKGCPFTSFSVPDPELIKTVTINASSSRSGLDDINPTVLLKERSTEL

[2] = molecular target: T2, COX-1 (Ovis aries, UniProt P05979); experiment: as above; format: biochemical
T2 construct: gene PTGS1; ovine COX-1
T2 sequence (P05979 25-600): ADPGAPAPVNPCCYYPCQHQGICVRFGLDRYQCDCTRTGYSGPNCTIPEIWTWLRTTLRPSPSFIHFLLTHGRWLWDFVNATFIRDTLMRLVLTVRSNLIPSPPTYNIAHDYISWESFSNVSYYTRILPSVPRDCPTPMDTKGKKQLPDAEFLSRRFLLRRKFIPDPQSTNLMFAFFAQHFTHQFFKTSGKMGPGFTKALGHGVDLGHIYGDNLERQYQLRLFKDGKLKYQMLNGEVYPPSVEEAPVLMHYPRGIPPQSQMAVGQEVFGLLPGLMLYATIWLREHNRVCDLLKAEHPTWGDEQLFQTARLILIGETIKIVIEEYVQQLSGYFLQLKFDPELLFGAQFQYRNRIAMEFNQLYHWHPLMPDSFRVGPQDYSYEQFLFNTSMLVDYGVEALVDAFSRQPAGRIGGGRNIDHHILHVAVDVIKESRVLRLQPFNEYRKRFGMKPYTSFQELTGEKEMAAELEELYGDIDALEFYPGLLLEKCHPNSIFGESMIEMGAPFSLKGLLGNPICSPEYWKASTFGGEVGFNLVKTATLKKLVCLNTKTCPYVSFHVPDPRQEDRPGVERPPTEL

COc1c(-c2ccc(O[C@@H]3O[C@H](CO)[C@@H](O)[C@H](O)[C@H]3O)c(O)c2)oc2cc(O[C@@H]3O[C@H](CO)[C@@H](O)[C@H](O)[C@H]3O)cc(O)c2c1=O [quercetin-3-methoxy-4′-glucosyl-7-glucoside]
IC50 [1]: 3.11 µM | IC50 [2]: 4.31 µM

Reference: publication PMC6631596, “Analgesic and Anti-Inflammatory Activities of Quercetin-3-methoxy-4′-glucosyl-7-glucoside Isolated from Indian Medicinal Plant Melothria heterophylla” (Medicines, 2019)
